Results on one molecule are retold here after paper PMC12664493, “Asparagine endopeptidase (AEP) inhibitor formulation via zein-based nanoparticle improves the therapeutic efficacy toward Alzheimer's disease” (Neurotherapeutics, 2025).

Series [1] concerns the target T1, AEP (Rattus norvegicus, UniProt Q9R0J8).
T1 construct: endogenous in cells; host or cells: primary rat cortical neurons
T1 sequence (Q9R0J8 18-435): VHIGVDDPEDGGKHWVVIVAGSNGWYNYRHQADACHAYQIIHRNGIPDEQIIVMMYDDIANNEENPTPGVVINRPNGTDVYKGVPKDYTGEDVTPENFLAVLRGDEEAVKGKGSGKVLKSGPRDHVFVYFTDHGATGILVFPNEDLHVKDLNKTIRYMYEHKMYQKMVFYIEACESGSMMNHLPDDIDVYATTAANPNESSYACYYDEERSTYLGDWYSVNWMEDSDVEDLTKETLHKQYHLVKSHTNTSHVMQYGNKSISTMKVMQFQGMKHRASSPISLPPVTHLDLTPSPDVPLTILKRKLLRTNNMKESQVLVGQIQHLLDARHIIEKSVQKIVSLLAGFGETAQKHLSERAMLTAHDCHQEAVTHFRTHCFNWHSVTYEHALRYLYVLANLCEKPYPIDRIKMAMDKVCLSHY
Kind of series: Titration assay of Aβ42-induced AEP activation in primary neurons (immunoblotting). In kind it is cell-based. Particulars: 2 μM pre-aggregated Aβ42, 24 h.

Series [2] can be described thus: Stability in human plasma. It counts as in vitro ADME. To be noted: read-out: Stability-Plasma T1/2.
Series [3] in a line: Stability in mouse liver microsomes. It counts as in vitro ADME. To be noted: read-out: Stability-Microsomes T1/2.
The test system of another series is Aβ plaques. Kind of series: Aβ PET (18F-AV45) in 3xTg mice after chronic treatment. In kind it is in vivo, mouse. To be noted: 7.5 mg/kg P.O. daily, one month. An excerpt:
(§1) Blood and brain tissues were collected at 0, 0.08, 0.25, 0.5, 1, 2, 4, and 8 h post-administration. For acute pharmacodynamic (PD) assessments, male and female 3xTg mice received oral doses of NP-11a-isopropyl at 7.5 mg/kg or 15 mg/kg, and blood and brain samples were collected 2 h after treatment.
Mice were maintained under isoflurane inhalation anesthesia during all procedures to ensure stable physiological conditions for radiochemical administration, imaging, and data processing. PET imaging was conducted using a high-resolution small-animal scanner (microPET; spatial resolution: 1.0 mm). Following intravenous administration of 10–15 MBq of ^18F-florbetapir (AV45) in 100 μL saline via the tail vein, 20-min volumetric brain emission scans were acquired. Image reconstruction was performed using ordered-subset expectation maximization (OSEM) to optimize spatial resolution and signal-to-noise ratios. For quantitative analysis, standardized uptake value ratios (SUVRs) were calculated by normalizing 18F-AV45 uptake in target regions to the cerebellar reference tissue. A predefined volumetric region of interest (VOI) template was applied to ensure consistent anatomical localization across subjects. SUVR data were statistically analyzed using Amide 1.0.4–1 (San Diego, CA, USA), with results reported for cortical and subcortical regions implicated in amyloid pathology.

In the next series the test system is 3xTg mice. Kind of series: Y-maze test in 3xTg mice. Particulars: 7.5 mg/kg P.O. daily, one month. It counts as in vivo, mouse.
From the text: as §1
The Y-maze test was employed to evaluate spatial working memory and spontaneous alternation behavior, a measure of natural exploratory pattern integrity. The apparatus comprised three symmetrical opaque arms (A, B, C; 30 cm length × 8 cm width × 15 cm height) intersecting at 120° angles to form a Y-shaped configuration. Mice were habituated to the maze during a 5-min acclimatization period to minimize novelty-induced anxiety. Following habituation, spontaneous exploration was recorded for 8 min using an overhead camera, with all trials conducted under consistent low-light conditions to reduce environmental stress. EthoVision XT 12 software (Noldus, Wageningen, The Netherlands) quantified total arm entries, entry sequences, and alternation patterns (consecutive entries into three distinct arms without repetition). The maze was thoroughly cleaned with 70 % ethanol between trials to eliminate olfactory cues.

Series [4] in a line: Plasma protein binding, human. It counts as in vitro ADME.
The nature of series [5]: Plasma and brain concentrations after acute oral treatment of 3xTg mice. In kind it is in vivo. To be noted: both sexes, mouse. An excerpt: Blood and brain tissues were collected at 0, 0.08, 0.25, 0.5, 1, 2, 4, and 8 h post-administration.
A short description of series [6]: Stability in human hepatocytes. In kind it is in vitro ADME.
Series [7] addresses T1, AEP. In words: AEP inhibition in cultured primary neurons. In kind it is cell-based.
The next series can be described thus: Caco-2 permeability. In kind it is in vitro ADME. Particulars: human.
Series [8] in a line: Stability in human liver microsomes. It counts as in vitro ADME.

Like-named read-outs stand apart in the source and are kept apart here.

On to `CC(C)Nc1nnc(Nc2cc(CO)c(N3CCOCC3)c3nonc23)s1` [11a-isopropyl], for which the “Aβ42-induced AEP activation” value at AEP [1] was “suppressed AEP activation in a dose-dependent manner”. In addition, the half-life in [2] is greater than 8 h; in series [3], greater than 0.462 h; in series [6] (read-out: Stability-Hepatocytes T1/2) it was 1.05 h; in series [8] (read-out: Stability-Microsomes T1/2), greater than 4 h. The “Aβ PET (18F-AV45) SUVR” value with Aβ plaques was “significantly decreasing the PET signals”. Besides, the “Cognitive function in the Y maze” value in the series with 3xTg mice is “significantly improved”. In addition, in series [4], the “Plasma Protein F u, plasma(%)” value worked out at 13.8%. Besides, the concentration at 2 h in [5] (brain, 7.5 mg/kg, 11a-isopropyl level in the brain, P.O. 7.5 mg/kg) worked out at 14.4 ng/mL; in series [5] (brain, 7.5 mg/kg, P.O. 7.5 mg/kg, read-out: Concentration in brain, Brain Mean), 14.4 ng/g; in [5] (brain, 7.5 mg/kg, P.O. 7.5 mg/kg, read-out: Concentration in brain, Brain Sample (single animal)) it was 14.4 ng/g; in series [5] (brain, 15 mg/kg, P.O. 15 mg/kg, read-out: Concentration in brain, Brain Sample (single animal)), 39.3 ng/g; in series [5] (plasma, 7.5 mg/kg, P.O. 7.5 mg/kg, read-out: Concentration in plasma, Serum Mean) it was 74.9 ng/mL. The hepatocyte CLint in series [6] stood at 22 µL/min/1e6 cells. Also, the half-inhibitory concentration (IC50) on AEP [7] was found to be 63 nM. Further, in “Caco-2 permeability” (a-b, first value of the cell), the apparent permeability from apical to basolateral (Papp A→B) is 6.34 ×10⁻⁶ cm/s. For the same molecule, the Papp B→A in “Caco-2 permeability” (value after the slash, head names only a-b, read-out: Permeability-Caco-2 Papp, second value of the cell (taken as b-a)) was 23.6 ×10⁻⁶ cm/s. In addition, the microsomal CLint in [8] is 3.6 µL/min/mg.
